Data on 13 compounds can be found in ChEMBL document CHEMBL1201862, “PubChem BioAssay data set” (2004).

The structures appear in SMILES notation.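 1) Cells in 96-well plates. 2) Compound, 48 h, 5 concentrations. 3) Linear interpolation between surrounding doses. 4) Unreached endpoint = highest concentration. GI50 = concentration required for 50% inhibition of growth.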 Active and inactive are the calls of the source. Rule as the data show it: active = GI50 up to about 1.1 µM and inactive = higher. Where only a bound is given, the exact number is not on record here.

Among the test systems are OVCAR-3; SN12C; OVCAR-8; SW-620; CCRF-CEM; SNB-75; SK-MEL-5; SK-OV-3; SF-268; OVCAR-5; NCI-H226; UACC-62; SNB-19; COLO 205; EKVX; TK-10.
Common to all, as to test: growth of human tumour cells (NCI), 48 h

Consider `CN1C[C@@H]2CC(=O)CC[C@@H]2C[C@H]1C#N`, for which the GI50 with OVCAR-3, in the experiment with SN12C, with OVCAR-8, in the experiment with SW-620, with CCRF-CEM and with SNB-75 was > 100 µM (inactive) throughout. Besides, the GI50 with SK-MEL-5, with SK-OV-3, with SF-268, in the experiment on OVCAR-5, with NCI-H226 and in the experiment on UACC-62 was > 100 µM (inactive) each time. In addition, the GI50 with SNB-19 was > 100 µM (inactive).

On to `Cc1cc2c(=O)cc(-c3ccc(C(=O)O)cc3)oc2c(C(=O)O)c1C`, for which the GI50 in the experiment with OVCAR-3, with SN12C, with OVCAR-8, with SW-620, with CCRF-CEM and in the experiment with SNB-75 was > 100 µM (inactive) in each case. The GI50 with SK-MEL-5, in the experiment on SK-OV-3, in the experiment on COLO 205, in the experiment on EKVX, in the experiment with OVCAR-5 and with TK-10 was > 100 µM (inactive) throughout. Moreover, the GI50 with NCI-H226, in the experiment on UACC-62 and with SNB-19 was > 100 µM (inactive) throughout.

For `COc1ccc(Br)c(N/N=C2\CCCNC2=O)c1`, the GI50 in the experiment with OVCAR-3 was > 100 µM (inactive); with SN12C, > 100 µM (inactive); in the experiment with OVCAR-8, > 100 µM (inactive); in the experiment with SW-620 it was 71.1 µM (inactive); in the experiment with CCRF-CEM it was > 100 µM (inactive); in the experiment on SNB-75, 23.1 µM (inactive). For the same compound, the GI50 in the experiment with SK-MEL-5 was 96.6 µM (inactive); with SK-OV-3, 81.3 µM (inactive); with COLO 205 it was 48 µM (inactive); with EKVX it was 22.6 µM (inactive); in the experiment with OVCAR-5 it was 44.6 µM (inactive); with TK-10, 57 µM (inactive). Besides, the GI50 in the experiment with NCI-H226, in the experiment with UACC-62 and with SNB-19 was > 100 µM (inactive) in each case.

Take `C[C@]12CCC[C@H](O)[C@H]1C[C@H](CO)CC2`: the GI50 in the experiment with OVCAR-3, with SN12C, with OVCAR-8, in the experiment on SW-620, with CCRF-CEM and in the experiment on SNB-75 was > 100 µM (inactive) in each case. The GI50 with SK-OV-3, with COLO 205, in the experiment on SF-268, in the experiment with OVCAR-5, in the experiment with TK-10 and in the experiment with NCI-H226 was > 100 µM (inactive) in each case. Besides, the GI50 in the experiment on UACC-62 and in the experiment with SNB-19 was > 100 µM (inactive) each time.

For the compound `CC1(C)SCc2nc3ncccc3n21`, the GI50 in the experiment on OVCAR-3, with SN12C, in the experiment on OVCAR-8, with SW-620, with CCRF-CEM and with SNB-75 was > 100 µM (inactive) each time. Further, the GI50 in the experiment on SK-MEL-5, in the experiment on SK-OV-3, in the experiment on COLO 205, in the experiment on EKVX, in the experiment with SF-268 and in the experiment on OVCAR-5 was > 100 µM (inactive) throughout. For the same compound, the GI50 in the experiment on TK-10, in the experiment on NCI-H226 and in the experiment with UACC-62 was > 100 µM (inactive) in each case.

`COc1ccc2oc3cccc(NCCN(C)C)c3c(=O)c2c1`: the GI50 with OVCAR-3 is 14.7 µM (inactive); with SN12C, 11 µM (inactive); in the experiment on OVCAR-8, 11.1 µM (inactive); with SW-620, 5.08 µM (inactive); with CCRF-CEM, 11.9 µM (inactive); in the experiment with SNB-75 it was 15.3 µM (inactive). For the same compound, the GI50 is 16.7 µM (inactive) with SK-MEL-5; 15.2 µM (inactive) with SK-OV-3; 5.6 µM (inactive) in the experiment on COLO 205; 15 µM (inactive) in the experiment with EKVX; 13.3 µM (inactive) with SF-268; 12.3 µM (inactive) in the experiment with OVCAR-5. The GI50 is 14.8 µM (inactive) in the experiment on TK-10, 16.2 µM (inactive) with NCI-H226, 12.7 µM (inactive) with UACC-62 and 14.3 µM (inactive) with SNB-19.

Consider `O=C(O)/C(Cl)=C(\Cl)C(=O)Nc1ccc(Cl)c(Cl)c1Cl`, for which the GI50 was 19 µM (inactive) with OVCAR-3; 20.9 µM (inactive) with SN12C; 20.5 µM (inactive) in the experiment on SW-620; 37.2 µM (inactive) in the experiment with CCRF-CEM; 18.8 µM (inactive) with SNB-75; 29.4 µM (inactive) with SK-MEL-5. In addition, the GI50 with SK-OV-3 is 19.7 µM (inactive); in the experiment on COLO 205 it was 20 µM (inactive); with EKVX it was 22.6 µM (inactive); in the experiment on SF-268, 25 µM (inactive); in the experiment with OVCAR-5, 18.2 µM (inactive); in the experiment on TK-10 it was 16.8 µM (inactive). Also, the GI50 in the experiment on NCI-H226 is 17.5 µM (inactive); in the experiment with UACC-62 it was 13.3 µM (inactive); in the experiment on SNB-19, 15.3 µM (inactive).

`CC(C)(C)C1=CC(=NNC(=S)NCc2ccccc2)C=C(C(C)(C)C)C1=O`: the GI50 was > 100 µM (inactive) in the experiment with OVCAR-3; 92.5 µM (inactive) in the experiment with SN12C; > 100 µM (inactive) in the experiment with OVCAR-8; > 100 µM (inactive) in the experiment with SW-620; 52.1 µM (inactive) with CCRF-CEM; 27.9 µM (inactive) in the experiment with SNB-75. In addition, the GI50 in the experiment on SK-MEL-5 is 37.6 µM (inactive); in the experiment on COLO 205, 51.5 µM (inactive); in the experiment on EKVX it was 89.3 µM (inactive); in the experiment on SF-268, 87.3 µM (inactive); in the experiment with TK-10 it was > 100 µM (inactive); in the experiment on NCI-H226, 78.5 µM (inactive). For the same compound, the GI50 was > 100 µM (inactive) in the experiment with UACC-62 and 71 µM (inactive) with SNB-19.

Regarding `CCOC(OCC)C(CC)[Se]c1ccccc1` (stereo not given), the GI50 is > 100 µM (inactive) in the experiment with OVCAR-3; 41 µM (inactive) with SN12C; > 100 µM (inactive) in the experiment on OVCAR-8; 16.3 µM (inactive) in the experiment on CCRF-CEM; 35.3 µM (inactive) in the experiment on SNB-75; > 100 µM (inactive) in the experiment on SK-MEL-5. For the same compound, the GI50 in the experiment with SK-OV-3 is > 100 µM (inactive); with COLO 205 it was 39.8 µM (inactive); with EKVX it was > 100 µM (inactive); in the experiment on SF-268, 72.6 µM (inactive); in the experiment on OVCAR-5, > 100 µM (inactive); in the experiment with TK-10, > 100 µM (inactive). The GI50 was 27.3 µM (inactive) in the experiment with NCI-H226, > 100 µM (inactive) in the experiment with UACC-62 and > 100 µM (inactive) with SNB-19.

For the compound `CC(N)C(=O)OCN1C(=O)C2C3C=CC(C2C1=O)C1C2C(=O)N(COC(=O)C(C)N)C(=O)C2C31` (stereo not given), the GI50 in the experiment on OVCAR-3 is 33.6 µM (inactive); in the experiment with SN12C, 25.6 µM (inactive); in the experiment on OVCAR-8, 22.1 µM (inactive); with SW-620, 24.4 µM (inactive); in the experiment with CCRF-CEM, 23.1 µM (inactive); in the experiment on SNB-75 it was 25.6 µM (inactive). In addition, the GI50 with SK-MEL-5 was 18.1 µM (inactive); in the experiment on SK-OV-3, 53.1 µM (inactive); with COLO 205, 19.4 µM (inactive); with EKVX it was > 100 µM (inactive); in the experiment with SF-268, 21.3 µM (inactive); with OVCAR-5 it was 47.8 µM (inactive). In addition, the GI50 is 71.6 µM (inactive) in the experiment with TK-10, 39.8 µM (inactive) in the experiment with NCI-H226, 22.8 µM (inactive) with UACC-62 and 52.2 µM (inactive) in the experiment on SNB-19.

For `C=CCc1cc2cccc(OC)c2oc1=O`, the GI50 in the experiment on OVCAR-3 was > 100 µM (inactive); in the experiment on SN12C, > 100 µM (inactive); with OVCAR-8 it was > 100 µM (inactive); in the experiment on SW-620, > 100 µM (inactive); with CCRF-CEM, 45.2 µM (inactive); in the experiment with SNB-75, 87.5 µM (inactive). The GI50 with SK-MEL-5 is 87.3 µM (inactive); in the experiment on COLO 205, > 100 µM (inactive); with EKVX, 44.3 µM (inactive); in the experiment with SF-268 it was > 100 µM (inactive); in the experiment on OVCAR-5, 66.1 µM (inactive); with TK-10, > 100 µM (inactive). Besides, the GI50 in the experiment on NCI-H226, with UACC-62 and with SNB-19 was > 100 µM (inactive) in each case.

For `COc1cc2c(c(OC)c1OC)-c1ccc(SC)c(=O)cc1[C@@H](NC(=O)c1ccc(Cl)cc1)CC2`, the GI50 with OVCAR-3 is < 0.01 µM (active); in the experiment on SN12C it was < 0.01 µM (active); in the experiment with OVCAR-8, < 0.01 µM (active); in the experiment on SW-620, < 0.01 µM (active); in the experiment on CCRF-CEM, < 0.01 µM (active); in the experiment with SNB-75, 2.16 µM (inactive). The GI50 was < 0.01 µM (active) in the experiment with SK-MEL-5; < 0.01 µM (active) with COLO 205; < 0.01 µM (active) with SF-268; 2.36 µM (inactive) in the experiment with TK-10; < 0.01 µM (active) in the experiment on NCI-H226; < 0.01 µM (active) with UACC-62. Further, the GI50 with SNB-19 was < 0.01 µM (active).

Turning to `O=C1CCC2(c3ccccc3)Nc3ccccc3N12` (stereo not given), the GI50 in the experiment on OVCAR-3, in the experiment with SN12C, with OVCAR-8, in the experiment with SW-620, with CCRF-CEM and with SNB-75 was > 100 µM (inactive) throughout. The GI50 with SK-MEL-5, with COLO 205, in the experiment with EKVX, in the experiment with SF-268, in the experiment with OVCAR-5 and with TK-10 was > 100 µM (inactive) throughout. Further, the GI50 in the experiment on NCI-H226 and in the experiment with UACC-62 was > 100 µM (inactive) in each case.
